Assay results taken from a melting point compilation (Tetko et al.; mined from patent text by program, amines drawn as free bases though some values may be those of a salt).

Structure (SMILES) | melting point
CCc1nccn1Cc1ccc2c(c1)-c1[nH]nc(-c3ccsc3)c1C2 | 238 to 239 °C
O=C1c2ccccc2CN1c1ccccc1CCN1CCN(c2nsc3ccccc23)CC1 | 208 °C
CCCCCc1csc2cc(OC)ccc12 | 43 to 45 °C
CSc1ncnc2c(N(C)C)nc(Cl)nc12 | 166 to 168 °C
CN(C)CCNc1ccnc2cc(C(F)(F)F)ccc12 | 110 to 113 °C
O=C1CCN(Cc2ccc([N+](=O)[O-])cc2)C(=O)C1=C1SC=CS1 | 192 to 193 °C
COc1cccc(NC(=O)C(C)Oc2ccc(Oc3ccc(C#N)cc3)cc2)c1 (stereo not given) | 118 to 120 °C
CC#CCOc1cc(Oc2ccc([N+](=O)[O-])cc2F)ncn1 | 132 °C
O=c1c(-c2ccc(O)cc2)coc2ncccc12 | 262 to 264 °C
CCc1cc2c(Cl)ccc(-n3c(=O)cc(C(F)(F)F)n(C)c3=O)c2o1 | 159 to 160 °C
Cc1nnc(-c2cc3c(OC[C@@H](O)CN4CCC(c5cccc6ccccc56)CC4)cccc3[nH]2)o1 | 203 to 205 °C
CC(=O)Nc1nc2ccc(S(=O)(=O)n3c(COC(C)C(=O)O)cc4nc(Cl)ccc43)cc2s1 (stereo not given) | 257 to 260 °C
COc1ccc(S(N)(=O)=O)cc1C(O)C(C)N=[N+]=[N-] (stereo not given) | 109 to 110 °C
COc1ccc2ccc(N3C(=O)c4ccccc4C3CC(=O)CCC(C)C)nc2n1 (stereo not given) | 150 °C
O=Cc1cccc(-c2ccco2)n1 | 46 to 48 °C
CCc1cc2c(s1)-n1nc(C(N)=O)nc1C(OC)N=C2c1ccccc1Cl (stereo not given) | 200 to 201 °C
Cc1cn(C(C)(C)C(=O)N(C)C)nc1-c1ccc(Cl)cc1Cl | 110 to 111 °C
Brc1ccc2ccncc2c1 | 78 to 79 °C
COc1ncc(F)c2n[nH]c(=S)n12 | 166 °C
Cc1cc(C(F)F)c2c(n1)C(O)CCC2 (stereo not given) | 101 to 104 °C
COc1cc(C(C)C)ccc1C1(NC(C)=O)C(=O)c2ccccc2C1=O | 222 to 224 °C
CCOC(=Cc1ccncc1)C(C)=O | 84 to 88 °C
CC(C)(C)OC(=O)n1cnc2c(N)cccc21 | 117 °C
CC(O)c1ccc(-c2ccc(N)cc2)cc1 (stereo not given) | 111 to 115 °C
CCCc1c(OCCCCCc2c(O)c(O)cc(Cl)c2Cl)ccc(C(=O)O)c1O | 159 to 164 °C

Structure (SMILES) | melting point
CC(C)(Cl)C(COCc1ccc([N+](=O)[O-])o1)N=O (stereo not given) | 134 to 135 °C
Cc1cccc(C(=O)OCC=Cc2ccccc2)c1O | 154 °C
CC1=C(C(=O)c2ccc(C(C)(C)C)cc2)C(=O)C2C=CC=CC2C1=O (stereo not given) | 64 to 65 °C
N#CC(CCOc1ccc(Br)cc1)c1ccc(Cl)cc1Cl (stereo not given) | 73.9 °C
CCOC(=O)c1csc(-c2cccc([N+](=O)[O-])c2)n1 | 142 to 145 °C
N#CCCCC(=NO)c1ccc(Cl)c(Cl)c1 | 122 to 123 °C
c1cc(-c2cc3nccnc3[nH]2)ccn1 | 324 to 326 °C
CCOC(=O)C(=O)Nc1ccc(OC)c(NC(=O)C(=O)OCC)c1 | 140 to 145 °C
CC(C)(C)OC(=O)N1CCC(COc2ccc(N)cc2)CC1 | 100 to 101 °C
CC(C)(C)CN1C(=O)[C@H](CC(=O)O)O[C@@H](c2ccccc2Cl)c2cc(Cl)ccc21 | 241 to 245 °C
CN1C(=O)N(c2cc(Cl)cc(Cl)c2)C(=O)[C@]12CNC[C@H]2c1ccc(C#N)cc1 | 175 to 177 °C
Clc1ccc(N2CCN(Cc3cn4cc(Cl)ccc4n3)CC2)c(Cl)c1 | 136 to 138 °C
NC(=O)c1nccn1C1Cc2c(Cl)cccc2C1=O (stereo not given) | 90 °C
CS(=O)(=O)c1ccc(C(CC2CCCC2)c2nc(Cl)c(C(=O)C3CC3)[nH]2)cc1 (stereo not given) | 95 to 97 °C
O=C(Nc1cccc(-c2nnn[nH]2)c1)C(=O)N1CCC(Cc2ccc(F)cc2)CC1 | 107 to 112 °C
N=C(CC=O)c1ccccc1 | 80 to 82 °C
C=C(C)C(=O)NCc1ccc(S(=O)(=O)ON=C2c3ccccc3-c3ccccc32)cc1 | 187 to 188 °C
Cc1cc(CCC(=O)c2ccc(-c3ccc(C(F)(F)F)cc3)s2)ccc1OC(C)(C)C(=O)O | 130 to 131 °C
CC(N)=NS(=O)(=O)C=Cc1c(Cl)cccc1Cl | 154 to 158 °C
CCOC(=O)C(=CN(C)C)C(=O)Nc1ccc(Br)cc1C | 88 to 90 °C
Cn1c(=O)c2c(Cl)nccc2n(C)c1=O | 220 °C
Cc1nn(-c2cc3nc(S)sc3cc2F)c(=O)n1C(F)F | 248 to 250 °C
CCCc1c(OCCCCc2ccc3cc(OC)c(OC)cc3c2)ccc(C(=O)O)c1O | 147 to 148 °C
COc1ccc2ccc(N3C(=O)c4ccccc4C3OC(=O)N3CCN(C)CC3)nc2n1 (stereo not given) | 218 °C
CCN(CC)Cc1cccn1N(C)c1ccnc2cc(C(F)(F)F)ccc12 | 64 to 66 °C

Structure (SMILES) | melting point
O=C(C1=NC=CC(Br)(C(=O)Nc2ccccc2)C1)c1ccccc1 (stereo not given) | 137 to 138 °C
O=S(=O)(Cl)CCCCCc1ccc(OCc2ccccc2)cc1 | 58 to 60 °C
C[C@@H](Oc1cc(-c2ncc(C(F)(F)F)cc2F)c(F)cc1Cl)C(=O)O | 48 to 50 °C
CN1C(=O)[C@H](NC(=O)CCc2ccc(F)cc2F)N=C(c2ccccc2)c2ccccc21 | 79 to 81 °C
O=Cc1c[nH]c2c1ccc1c3cc(F)ccc3[nH]c12 | > 250 °C
COc1ccccc1Oc1c(Cl)nc(-c2ccoc2)nc1NS(=O)(=O)c1ccc(C(C)(C)C)cc1 | > 300 °C
O=Cc1c(O)cccc1OCCCC(=O)O | 151 to 153 °C
NC(=O)c1ccc(-c2nc(O)c3c(n2)CCC3)cc1 | 201 °C
Cc1ccc([N+](=O)[O-])c(C(=O)Nc2nnn[nH]2)c1 | 278 to 279 °C
CCOc1c(Nc2cccc(C3C(C(=O)OC)=C(C)NC(C)=C3C(=O)OC)c2)c(=O)c1=O | 249 to 252 °C
Cc1cc(O)c(SCc2ccc(F)cc2)c(=O)o1 | 114 to 118 °C
NC(C(=O)O)c1ccc(C(=O)O)cc1-c1ccccc1 (stereo not given) | 238 to 240 °C
C[C@@H](NC(=O)c1c[nH]c2ncc(-c3nn(C)c4c(F)c(F)ccc34)nc12)C(=O)N1CC(C#N)C1 | 240 to 250 °C
O=C1C=C(NC(=O)C(=O)c2cn(Cc3ccc(Cl)cc3)c3cc(Cl)ccc23)CO1 | 255 to 257 °C
Cn1c(C(F)(F)F)cc(=O)n(-c2ccc(Cl)cc2F)c1=O | 114 to 116 °C
CC(C)(C)C(=O)COc1nn(CC(=O)C(C)(C)C)c(-c2ccc(S(C)(=O)=O)cc2)c1-c1ccc(F)cc1 | 180 to 182 °C
CN(C)C(=O)CN1CCC(c2ccc(Nc3nc4c(-c5ccc[nH]c5=O)cccn4n3)cc2)CC1 | > 250 °C
O=[N+]([O-])c1cnn2c(-c3ccco3)ccnc12 | 235 to 237 °C
O=C1CCc2c([nH]c3ccc(Cl)cc23)C1 | 194 to 196 °C
CCCCCC(CC(=O)O)c1cc(C=O)c(OC)cc1OC (stereo not given) | 110 to 112 °C
O=C(Cl)N1CC(Oc2cccc(Br)c2)C1 | 87 to 88 °C
CCSc1nnnn1-c1ccc(Cl)cc1F | 76 to 79 °C
CCOC(=O)c1cc(S(=O)C(F)(F)C(F)F)c(-c2ccc(Cl)cc2)[nH]1 (stereo not given) | 138 to 140 °C
CC(C)Oc1cccc2oc(C(=O)O)cc12 | 148 to 150 °C
Cc1c(CC2CCc3c(c4ccccc4n3C)C2=O)ncn1S(=O)(=O)N(C)C (stereo not given) | 122 to 124 °C
